Tests used:
Type in all cases: in vivo
[1] = Body weight of the EAE mice (Table 7)
Description: These differences were statistically significant (p<0.000, Manova). According to the subsequent Post Hoc comparison (LSD), all the groups were different from the control (Table 7). […] On day 14, four days after the onset of the disease, sick mice lost an average of 2 g of weight. The average mean weight of GA-blocked mice was reduced by only 0.4 g. On day 23 the control group reached the lowest weight, 14.6 g.

MAO-B = target: T1, MAO-B (Mus musculus, UniProt Q8BW75); assay: MAO assay (14C PEA substrate) in brains of treated EAE mice
T1 construct: in the brains of EAE mice; from tissue; host or cells: brain homogenate of ladostigil-treated EAE mice
T1 sequence (Q8BW75 1-520): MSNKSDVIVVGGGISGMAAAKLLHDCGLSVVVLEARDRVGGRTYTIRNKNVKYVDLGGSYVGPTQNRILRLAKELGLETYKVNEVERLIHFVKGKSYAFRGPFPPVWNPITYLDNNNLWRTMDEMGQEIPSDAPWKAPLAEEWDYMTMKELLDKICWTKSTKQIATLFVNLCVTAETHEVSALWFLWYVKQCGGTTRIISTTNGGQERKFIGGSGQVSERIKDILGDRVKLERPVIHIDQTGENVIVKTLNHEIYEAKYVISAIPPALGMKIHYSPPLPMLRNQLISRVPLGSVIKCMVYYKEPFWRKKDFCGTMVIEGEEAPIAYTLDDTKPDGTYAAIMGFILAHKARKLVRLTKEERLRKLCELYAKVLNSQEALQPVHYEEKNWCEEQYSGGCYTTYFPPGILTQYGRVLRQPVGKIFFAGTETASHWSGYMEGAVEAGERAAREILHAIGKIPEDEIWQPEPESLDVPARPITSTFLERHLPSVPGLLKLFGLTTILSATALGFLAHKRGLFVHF
Method: (§1) From the mice of Example 2, the level of MAO (MAO-A and MAO-B) inhibition was determined using ^14C-Labeled 2-phenylethylamine and 5-hydroxytryptamine as substrates.
(§2) The MAO enzyme obtained from a homogenate of rat brain in 0.3M sucrose, which was centrifuged at 600 g for 15 minutes. The supernatant is diluted appropriately in 0.05M phosphate buffer, and pre-incubated with serial dilutions of test compounds for 20 minutes at 37° C. ^14C-Labeled substrates (2-phenylethylamine, hereinafter PEA; 5-hydroxytryptamine, hereinafter 5-HT) are then added, and the incubation continued for a further 20 minutes (PEA), or 30-45 minutes (5-HT). Substrate concentrations used are 50 μM (PEA) and 1 mM (5-HT). In the case of PEA, enzyme concentration is chosen so that not more than 10% of the substrate is metabolized during the course of the reaction. Deaminated products are extracted into toluene-ethyl acetate (1:1 v/v) containing 0.6% (w/v) 2,5-diphenyloxazole (ppo) prior to determination by liquid scintillation counting. Radioactivity in the eluate indicates the production of neutral and acidic metabolites formed as a result of MAO activity. Activity of MAO in the sample is expressed as a percentage of control activity in the absence of inhibitors after subtraction of appropriate blank values. The activity determined using PEA as substrate is referred to as MAO-B, and that determined using 5-HT as MAO-A. Concentrations of inhibitor producing 50% inhibition of substrate metabolism (IC50) are calculated from the inhibition curves.

MAO-A = target: T2, MAO-A (Mus musculus, UniProt Q64133); assay: MAO assay (14C 5-HT substrate) in brains of treated EAE mice
T2 construct: in the brains of EAE mice; from tissue; host or cells: brain homogenate of ladostigil-treated EAE mice
T2 sequence (Q64133 1-526): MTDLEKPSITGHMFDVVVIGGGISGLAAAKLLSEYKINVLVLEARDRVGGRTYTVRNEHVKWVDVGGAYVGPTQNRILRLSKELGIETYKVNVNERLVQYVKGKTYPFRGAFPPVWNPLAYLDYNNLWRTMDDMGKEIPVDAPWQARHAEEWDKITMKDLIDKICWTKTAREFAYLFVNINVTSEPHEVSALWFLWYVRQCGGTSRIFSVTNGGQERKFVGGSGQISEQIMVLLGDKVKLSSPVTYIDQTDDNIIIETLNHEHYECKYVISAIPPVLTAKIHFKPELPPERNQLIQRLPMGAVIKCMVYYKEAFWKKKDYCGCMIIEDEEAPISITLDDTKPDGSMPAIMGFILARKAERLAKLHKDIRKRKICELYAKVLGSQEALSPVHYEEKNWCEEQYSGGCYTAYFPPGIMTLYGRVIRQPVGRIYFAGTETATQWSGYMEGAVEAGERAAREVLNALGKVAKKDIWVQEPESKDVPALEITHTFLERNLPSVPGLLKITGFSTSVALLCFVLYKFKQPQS
Method: as §1, §2

[2] = mouse, brain of EAE mice, 10.2 mg/kg
[3] = mouse, brain of EAE mice, 25.5 mg/kg
[4] = mouse, brain of EAE mice, 51 mg/kg
[5] = mouse, brain of EAE mice, 70.1 mg/kg

SMILES: C#CCN[C@@H]1CCc2ccc(OC(=O)N(C)CC)cc21 [Ladostigil, R(+)-6-(N-methyl,N-ethyl-carbamoyloxy)-N′-propargyl-1-aminoindan]
- Weight of EAE mice ([1]; day 2 after induction, ladostigil salt 10.2 mg/kg gavage daily): 18.1 ± 1.0 g
- Weight of EAE mice ([1]; day 2 after induction, ladostigil salt 25.5 mg/kg gavage daily): 18.2 ± 0.8 g
- Weight of EAE mice ([1]; day 2 after induction, ladostigil salt 51 mg/kg gavage daily): 18.2 ± 0.9 g
- Weight of EAE mice ([1]; day 2 after induction, ladostigil salt 70.1 mg/kg gavage daily): 18.5 ± 0.8 g
- Weight of EAE mice ([1]; day 14 after induction, ladostigil salt 10.2 mg/kg gavage daily): 16.0 ± 1.7 g
- Weight of EAE mice ([1]; day 14 after induction, ladostigil salt 25.5 mg/kg gavage daily): 15.9 ± 1.7 g
- Weight of EAE mice ([1]; day 14 after induction, ladostigil salt 51 mg/kg gavage daily): 15.6 ± 1.6 g
- Weight of EAE mice ([1]; day 14 after induction, ladostigil salt 70.1 mg/kg gavage daily): 15.9 ± 1.4 g
- Weight of EAE mice ([1]; day 30 after induction, ladostigil salt 10.2 mg/kg gavage daily): 17.6 ± 2.5 g
- Weight of EAE mice ([1]; day 30 after induction, ladostigil salt 25.5 mg/kg gavage daily): 17.8 ± 1.4 g
- Weight of EAE mice ([1]; day 42 after induction, ladostigil salt 10.2 mg/kg gavage daily): 17.5 ± 2.9 g
- Weight of EAE mice ([1]; day 42 after induction, ladostigil salt 25.5 mg/kg gavage daily): 17.6 ± 1.7 g
- Weight compared with positive control ([1]; highest dose of ladostigil, day 30): comparable with the positive control
- inhibition of MAO-B (MAO-B; 51 and 70.1 mg/kg/day, brain): 81-89%
- MAO-B activity dpm (MAO-B; brain of EAE mice, 10.2 mg/kg): 8784 +/− 1047 dpm
- MAO-B activity dpm (MAO-B; brain of EAE mice, 25.5 mg/kg): 4258 +/− 467 dpm
- MAO-B activity dpm (MAO-B; brain of EAE mice, 51 mg/kg): 2424 +/− 1122 dpm
- MAO-B activity dpm (MAO-B; brain of EAE mice, 70.1 mg/kg): 1382 +/− 250 dpm
- inhibition at 10.2 mg/kg (MAO-B; [2]): 32%
- inhibition at 25.5 mg/kg (MAO-B; [3]): 67%
- inhibition at 51 mg/kg (MAO-B; [4]): 81%
- inhibition at 70.1 mg/kg (MAO-B; [5]): 89%
- MAO-A inhibition (MAO-A; 51 and 70.1 mg/kg/day, brain): 55-60%
- MAO-A activity dpm (MAO-A; brain of EAE mice, 10.2 mg/kg): 3702 +/− 119 dpm
- MAO-A activity dpm (MAO-A; brain of EAE mice, 25.5 mg/kg): 2672 +/− 128 dpm
- MAO-A activity dpm (MAO-A; brain of EAE mice, 51 mg/kg): 1822 +/− 115 dpm
- MAO-A activity dpm (MAO-A; brain of EAE mice, 70.1 mg/kg): 1621 +/− 158 dpm
- inhibition at 10.2 mg/kg (MAO-A; [2]): 9%
- inhibition at 25.5 mg/kg (MAO-A; [3]): 34%
- inhibition at 51 mg/kg (MAO-A; [4]): 55%
- inhibition at 70.1 mg/kg (MAO-A; [5]): 60%
